In patent publication US5759577A, “Controlled release of steroids from sugar coatings” (American Home Products Corporation, priority 1996, dated 1998):

Experiments:
[1] = in vitro dissolution of medrogestone, USP XX <711> Apparatus 2, 50 r.p.m.; type: physicochemical; conditions: sugar coat containing 0.4% microcrystalline cellulose versus conventional tablet
Experimental: A sugar coating containing 5 mg of medrogestone in a matrix of sucrose with 0.4% microcrystalline cellulose and 0.5% polyvinyl pyrrolidone was applied to a sealed and sugar-coated tablet core.

[2] = in vitro dissolution of steroid, Method A (USP XX <711> Apparatus 2, 50 rpm); type: physicochemical; conditions: Examples 1-3, Methods A, B and C, no microcrystalline cellulose
Description: CV represents the coefficient of variation between these trials expressed as a percentage.

Row | Structure (SMILES) | dissolution of medrogestone (in words) [1] | release from the sugar coating (in words) [2]
1 | CC(=O)[C@@]1(C)CC[C@H]2[C@@H]3C=C(C)C4=CC(=O)CC[C@]4(C)[C@H]3CC[C@@]21C [medrogestone] | dramatic effect of reduced dissolution | –
2 | CC(=O)O[C@]1(C(C)=O)CC[C@H]2[C@@H]3C[C@H](C)C4=CC(=O)CC[C@]4(C)[C@H]3CC[C@@]21C [medroxyprogesterone acetate] | – | released from the sugar coating extremely rapidly
